{"source": "patent US20100069389A1", "about": "“NOVEL FORMS OF REBOXETINE” (Bionevia Pharmaceuticals, Inc., priority 2008, published 2010)", "origin": "cited, not measured here", "conditions": "humans; Denolle et al., Clin Pharmacol Ther. 1999"}
{"molecule": "CCOc1ccccc1OC(c1ccccc1)C1CNCCO1", "note": "(racemic) [Racemic reboxetine, (2RS)-2-[(RS)-(2-ethoxyphenoxy)-phenylmethyl]morpholine]", "values": [{"measurement": "Blood pressure and heart rate increases compared with (R,R)-reboxetine", "value": "greater blood pressure increases and heart rate increases in humans than does administration of (R,R)-reboxetine"}]}
